Values of other authors, collected in US20230310343A1 (priority 2020, published 2023).
Like-named read-outs stand apart in the source and are kept apart here.

Key:
[1] = tested on: infectious bronchitis virus (IBV)
[2] = tested on: herpes simplex virus 1 (HSV-1); settings: for selectivity index: HSV-1; for reduction of viral multiplication: HSV-1-infected cells
[3] = biological target: N-terminus of the N protein (Avian infectious bronchitis virus, UniProt P69596); settings: IBV N protein
hemagglutinin = hemagglutinin (Influenza A virus, UniProt P03452)
Chain of hemagglutinin (P03452 18-342 limits assumed): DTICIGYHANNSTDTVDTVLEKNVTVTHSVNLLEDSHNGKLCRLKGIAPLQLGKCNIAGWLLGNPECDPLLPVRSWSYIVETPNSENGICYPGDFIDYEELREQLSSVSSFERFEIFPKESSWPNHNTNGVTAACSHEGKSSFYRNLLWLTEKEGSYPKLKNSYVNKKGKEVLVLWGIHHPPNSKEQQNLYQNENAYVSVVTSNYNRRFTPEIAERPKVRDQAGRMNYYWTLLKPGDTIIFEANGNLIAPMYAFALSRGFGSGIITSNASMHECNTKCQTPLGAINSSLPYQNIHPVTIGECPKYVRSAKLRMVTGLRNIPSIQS
Chain of hemagglutinin (P03452 344-565 limits assumed): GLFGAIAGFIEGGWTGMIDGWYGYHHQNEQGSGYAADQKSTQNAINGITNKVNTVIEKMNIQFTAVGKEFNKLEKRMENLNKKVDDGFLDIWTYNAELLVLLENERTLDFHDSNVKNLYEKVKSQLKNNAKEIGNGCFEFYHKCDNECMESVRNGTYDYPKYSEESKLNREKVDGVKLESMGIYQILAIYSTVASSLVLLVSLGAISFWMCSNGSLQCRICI

[4] = after penetration of the virus into the cell
[5] = before the virus has entered the cell

Chain of N-terminus of the N protein (P69596 31-156 limits assumed): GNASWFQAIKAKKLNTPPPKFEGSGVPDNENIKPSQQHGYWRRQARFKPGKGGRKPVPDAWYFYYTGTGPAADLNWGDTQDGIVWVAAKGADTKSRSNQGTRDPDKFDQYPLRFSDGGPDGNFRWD

CC1=CCC2CC1C2(C)C (stereo not drawn) [alpha-pinene]
reducing/inhibiting IBV replication [1]: inhibit viral replication

C=C1CCC2CC1C2(C)C (stereo not drawn) [beta-pinene]
reducing/inhibiting IBV replication [1]: inhibit viral replication

CC12CCC(CC1)C(C)(C)O2 [cineole, 1,8-cineole]
selectivity index [2]: low
reduction of viral multiplication [2]: significantly reduce viral multiplication
reducing/inhibiting IBV replication [1]: highly effective
inhibition of IBV [1, 4]: fully effective
inhibition of IBV [1, 5]: moderate effectiveness
binding to the N-terminus of the N protein [3]: binds securely

CC(C)=CCC/C(C)=C/C=O [citrol]
reduction of viral multiplication [2]: significantly reduce viral multiplication

CC(C)=CCCC(C)CCO (stereo not drawn) [citronellol]
effectiveness against influenza (H1N1) (influenza (H1N1) virus; liquid phase): only partially effective
effectiveness against influenza (H1N1) (influenza (H1N1) virus; vapor phase): effective

Cc1ccc(C(C)C)cc1 [cymene]
reduction of viral multiplication [2]: significantly reduce viral multiplication

C=CCc1ccc(O)c(OC)c1 [eugenol]
effectiveness against influenza (H1N1) (influenza (H1N1) virus; liquid phase): effective
plaque reduction (influenza (H1N1) virus; liquid phase): one hundred
effectiveness against influenza (H1N1) (influenza (H1N1) virus; vapor phase): effective

CC1=CCC(O)(C(C)C)CC1 (stereo not drawn) [terpinen-4-ol]
reduction of viral multiplication [2]: significantly reduce viral multiplication

Cc1ccc(C(C)C)c(O)c1 [thymol]
selectivity index [2]: low
reduction of viral multiplication [2]: significantly reduce viral multiplication

pinene
inhibition of hemagglutinin activity (hemagglutinin): able to inhibit
reduction of viral multiplication [2]: significantly reduce viral multiplication
inhibition of IBV [1, 4]: fully effective
inhibition of IBV [1, 5]: moderate effectiveness
binding to the N-terminus of the N protein [3]: binds to the N-terminus of the N protein

terpinene
reduction of viral multiplication [2]: significantly reduce viral multiplication
